Measurements: patent publication US12350270B2, “Antimalarial agents” (Merck Sharp & Dohme LLC, priority 2019, dated 2025)
pEC50: −log10 of the molar value.

Each compound was assayed on parasites (ring stage, in human red blood cell culture) (assay: Parasite LDH growth assay (antiparasite potency, Parasite Assay)). Settings: Plasmodium falciparum, Erythrocyte, 72 h, 0.7% rings, 2% haematocrit, 72 hours at 37° C., LDH readout of parasite growth.
Assay type: cell-based, Plasmodium falciparum
Outline: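 Growth was read by an LDH assay after a freeze–thaw cycle (−80 °C overnight, 4 h thaw at RT). Before that, parasites grew with compound for 72 h at 37 °C under gassed, humidified conditions. The input was a ring-stage culture adjusted to 0.7% parasitemia and 2% haematocrit in serum (5%)/albumax (0.5%)-supplemented RPMI-Hepes.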

Structure (SMILES) | pEC50
CC[C@]1(C)CC(=O)N([C@@H]2c3cc(C(=O)N[C@@H]4c5ccccc5OC(C)(C)[C@H]4O)ccc3C[C@@H]2C)C(=N)N1 [Example 166, (2S,3S)-3-[(4R)-4-ethyl-2-imino-4-methyl-6-oxo-hexahydropyrimidin-1-yl]-N-[(3S,4R)-3-hydroxy-2,2-dimethyl-chroman-4-yl]-2-methyl-indane-5-carboxamide] | 6.81
CC[C@]1(C)CC(=O)N([C@@H]2c3cc(C(=O)N[C@@H]4c5ccccc5OC(C)(C)[C@H]4O)ccc3C[C@H]2C)C(=N)N1 [Example 167, (2R,3S)-3-[(4R)-4-ethyl-2-imino-4-methyl-6-oxo-hexahydropyrimidin-1-yl]-N-[(3S,4R)-3-hydroxy-2,2-dimethyl-chroman-4-yl]-2-methyl-indane-5-carboxamide] | 6.60
CC[C@]1(C)CC(=O)N([C@H]2c3cc(C(=O)N[C@@H]4c5ccccc5OC(C)(C)[C@H]4O)ccc3C[C@H]2C)C(=N)N1 [Example 168, (2R,3R)-3-[(4R)-4-ethyl-2-imino-4-methyl-6-oxo-hexahydropyrimidin-1-yl]-N-[(3S,4R)-3-hydroxy-2,2-dimethyl-chroman-4-yl]-2-methyl-indane-5-carboxamide] | 9.40
CC[C@]1(C)CC(=O)N([C@H]2c3cc(C(=O)N[C@@H]4c5ccccc5OC(C)(C)[C@H]4O)ccc3C[C@@H]2C)C(=N)N1 [Example 169, (2S,3R)-3-[(4R)-4-ethyl-2-imino-4-methyl-6-oxo-hexahydropyrimidin-1-yl]-N-[(3S,4R)-3-hydroxy-2,2-dimethyl-chroman-4-yl]-2-methyl-indane-5-carboxamide] | 9.52
CC[C@]1(C)CC(=O)N([C@H]2C[C@H](C)c3ccc(C(=O)N[C@@H]4c5ccccc5OC(C)(C)[C@H]4O)cc32)C(=N)N1 [Example 170, (1S,3S)-3-[(4R)-4-ethyl-2-imino-4-methyl-6-oxo-hexahydropyrimidin-1-yl]-N-[(3S,4R)-3-hydroxy-2,2-dimethyl-chroman-4-yl]-1-methyl-indane-5-carboxamide] | 6.74
CC[C@]1(C)CC(=O)N([C@@H]2C[C@@H](C)c3ccc(C(=O)N[C@@H]4c5ccccc5OC(C)(C)[C@H]4O)cc32)C(=N)N1 [Example 171, (1R,3R)-3-[(4R)-4-ethyl-2-imino-4-methyl-6-oxo-hexahydropyrimidin-1-yl]-N-[(3S,4R)-3-hydroxy-2,2-dimethyl-chroman-4-yl]-1-methyl-indane-5-carboxamide] | 9.15
CC1(C)CC(=O)N([C@@H]2CCOc3ccc(C(=O)N[C@@H]4c5ccccc5OC(C)(C)[C@@]4(C)O)cc32)C(=N)N1 [Example 172, (4R)-N-[(3S,4R)-3-hydroxy-2,2,3-trimethyl-chroman-4-yl]-4-(2-imino-4,4-dimethyl-6-oxo-hexahydropyrimidin-1-yl)chromane-6-carboxamide] | 9.05
CCC1(CC)CC(=O)N([C@@H]2CCOc3ccc(C(=O)N[C@@H]4c5ccccc5OC[C@H]4OC)cc32)C(=N)N1 [Example 173, (4R)-4-(4,4-diethyl-2-imino-6-oxo-hexahydropyrimidin-1-yl)-N-[(3S,4R)-3-methoxychroman-4-yl]chromane-6-carboxamide] | 8.55
CC[C@]1(C)CC(=O)N([C@H]2c3cc(C(=O)N[C@@H]4c5ccccc5C[C@H]4O)ccc3OC[C@@H]2COC)C(=N)N1 [Example 174, (3S,4R)-4-[(4R)-4-ethyl-2-imino-4-methyl-6-oxo-hexahydropyrimidin-1-yl]-N-[(1R,2R)-2-hydroxyindan-1-yl]-3-(methoxymethyl)chromane-6-carboxamide] | 8.72
COCC1(C)CC(N2C(=N)NC(C)(C)CC2=O)c2cc(C(=O)N[C@@H]3c4ccccc4C[C@H]3O)ccc2O1 (stereo partly drawn) [Example 175, N-[(1R,2R)-2-hydroxyindan-1-yl]-4-(2-imino-4,4-dimethyl-6-oxo-hexahydropyrimidin-1-yl)-2-(methoxymethyl)-2-methyl-chromane-6-carboxamide] | 7.51
CC[C@@]1(C)CC(=O)N(C2c3cc(C(=O)N[C@H]4CC(C)(C)Oc5ccccc54)ccc3OCC2O)C(=N)N1 (stereo partly drawn) [Example 177, N-[(4S)-2,2-dimethylchroman-4-yl]-4-[(4S)-4-ethyl-2-imino-4-methyl-6-oxo-hexahydropyrimidin-1-yl]-3-hydroxy-chromane-6-carboxamide] | 7.17
CC[C@]1(C)CC(=O)N(C2c3cc(C(=O)N[C@@H]4c5ccccc5C[C@@]4(C)O)ccc3OCC2OC)C(=N)N1 (stereo partly drawn) [Example 179, 4-[(4R)-4-ethyl-2-imino-4-methyl-6-oxo-hexahydropyrimidin-1-yl]-N-[(1R,2R)-2-hydroxy-2-methyl-indan-1-yl]-3-methoxy-chromane-6-carboxamide] | 7.18
CC[C@]1(C)CC(=O)N(C2c3cc(C(=O)N[C@@H]4c5ccccc5C[C@H]4O)ccc3OCC2(C)OC)C(=N)N1 (stereo partly drawn) [Example 180, 4-[(4R)-4-ethyl-2-imino-4-methyl-6-oxo-hexahydropyrimidin-1-yl]-N-[(1R,2R)-2-hydroxyindan-1-yl]-3-methoxy-3-methyl-chromane-6-carboxamide] | 7.18
CC1(C)CC(=O)N([C@H]2c3cc(C(=O)N[C@@H]4c5ccccc5OC(C)(C)[C@H]4O)ccc3OC2(C)C)C(=N)N1 [Example 182, (3S)-N-[(3S,4R)-3-hydroxy-2,2-dimethyl-chroman-4-yl]-3-(2-imino-4,4-dimethyl-6-oxo-hexahydropyrimidin-1-yl)-2,2-dimethyl-3H-benzofuran-5-carboxamide] | 8.21
COCC1(C)Oc2ccc(C(=O)N[C@@H]3c4ccccc4C[C@]3(C)O)cc2C1N1C(=N)NC(C)(C)CC1=O (stereo partly drawn) [Example 183, N-[(1R,2S)-2-hydroxy-2-methyl-indan-1-yl]-3-(2-imino-4,4-dimethyl-6-oxo-hexahydropyrimidin-1-yl)-2-(methoxymethyl)-2-methyl-3H-benzofuran-5-carboxamide] | 7.15
CC1(C)CC(=O)N([C@@H]2CCOc3ccc(C(=O)N[C@H]4c5ccccc5OC(C)(C)[C@]4(C)O)cc32)C(=N)N1 [Example 184, (4R)-N-[(3R,4S)-3-hydroxy-2,2,3-trimethyl-chroman-4-yl]-4-(2-imino-4,4-dimethyl-6-oxo-hexahydropyrimidin-1-yl)chromane-6-carboxamide] | 6.98
COC1COc2ccc(C(=O)N[C@@H]3c4ccccc4OC[C@]3(C)O)cc2C1N1C(=N)NC(C)(C)CC1=O (stereo partly drawn) [Example 185, N-[(3R,4R)-3-hydroxy-3-methyl-chroman-4-yl]-4-(2-imino-4,4-dimethyl-6-oxo-hexahydropyrimidin-1-yl)-3-methoxy-chromane-6-carboxamide] | 7.30
COC1COc2ccc(C(=O)N[C@@H]3c4ccccc4OC[C@@]3(C)O)cc2C1N1C(=N)NC(C)(C)CC1=O (stereo partly drawn) [Example 186, N-[(3S,4R)-3-hydroxy-3-methyl-chroman-4-yl]-4-(2-imino-4,4-dimethyl-6-oxo-hexahydropyrimidin-1-yl)-3-methoxy-chromane-6-carboxamide] | 7.15
CC1(C)CC(=O)N(C2CCS(=O)(=O)c3ccc(C(=O)N[C@@H]4c5ccccc5C[C@]4(C)O)cc32)C(=N)N1 (stereo partly drawn) [Example 187, N-[(1R,2S)-2-hydroxy-2-methyl-indan-1-yl]-4-(2-imino-4,4-dimethyl-6-oxo-hexahydropyrimidin-1-yl)-1,1-dioxo-3,4-dihydro-2H-thiochromane-6-carboxamide] | 7.18
CC1(C)CC(=O)N(C2CCS(=O)(=O)c3ccc(C(=O)N[C@@H]4c5ccccc5C[C@@]4(C)O)cc32)C(=N)N1 (stereo partly drawn) [Example 188, N-[(1R,2R)-2-hydroxy-2-methyl-indan-1-yl]-4-(2-imino-4,4-dimethyl-6-oxo-hexahydropyrimidin-1-yl)-1,1-dioxo-3,4-dihydro-2H-thiochromene-6-carboxamide] | 6.69
CC1(C)CC(=O)N([C@@H]2CCOc3ccc(C(=O)N[C@@H]4c5cc(F)ccc5OC(C)(C)[C@H]4O)cc32)C(=N)N1 [Example 189, (4R)-N-[(3S,4R)-6-fluoro-3-hydroxy-2,2-dimethyl-chroman-4-yl]-4-(2-imino-4,4-dimethyl-6-oxo-hexahydropyrimidin-1-yl)chromane-6-carboxamide] | 9.00
CCC1(CC)CC(=O)N([C@@H]2CCOc3ccc(C(=O)N[C@@H]4c5cc(F)ccc5OC[C@H]4O)cc32)C(=N)N1 [Example 191, (4R)-4-(4,4-diethyl-2-imino-6-oxo-hexahydropyrimidin-1-yl)-N-[(3S,4R)-6-fluoro-3-hydroxy-chroman-4-yl]chromane-6-carboxamide] | 8.59
CCC1(CC)CC(=O)N([C@@H]2CCOc3ccc(C(=O)N[C@H]4c5cc(F)ccc5OC[C@@H]4O)cc32)C(=N)N1 [Example 192, (4R)-4-(4,4-diethyl-2-imino-6-oxo-hexahydropyrimidin-1-yl)-N-[(3R,4S)-6-fluoro-3-hydroxy-chroman-4-yl]chromane-6-carboxamide] | 6.63
CCC1(CC)CC(=O)N([C@@H]2CCOc3ccc(C(=O)NC(c4ccccc4)c4ccccc4)cc32)C(=N)N1 [Example 194, (4R)-N-benzhydryl-4-(4,4-diethyl-2-imino-6-oxo-hexahydropyrimidin-1-yl)chromane-6-carboxamide] | 9.05
CC1(C)CC(=O)N([C@@H]2CCOc3ccc(C(=O)N[C@@H]4c5cc(Cl)ccc5OC[C@@]4(C)O)cc32)C(=N)N1 [Example 195, (4R)-N-[(3S,4R)-6-chloro-3-hydroxy-3-methyl-chroman-4-yl]-4-(2-imino-4,4-dimethyl-6-oxo-hexahydropyrimidin-1-y)chromane-6-carboxamide] | 8.46
CC[C@]1(C)CC(=O)N([C@@H]2CCOc3ccc(C(=O)N[C@@H]4c5cc(Cl)ccc5OC[C@H]4O)cc32)C(=N)N1 [Example 196, (4R)-N-[(3S,4R)-6-chloro-3-hydroxy-chroman-4-yl]-4-[(4R)-4-ethyl-2-imino-4-methyl-6-oxo-hexahydropyrimidin-1-yl]chromane-6-carboxamide] | 8.07
